Twelve molecules from ChEMBL document CHEMBL4219201, “Secoiridoid analogues from the fruits of Ligustrum lucidum and their inhibitory activities against influenza A virus” (Bioorg Med Chem Lett, 2018) can be followed below.

Active and inactive are the calls of the source. The calls are words filed in the database; no cut-off is given here.

For data set [1], the system named is Influenza A virus. Put plainly: Antiviral activity against Influenza A virus (A/WSN/1933(H1N1)) infected in MDCK cells cocultured with human 293T-Gluc cells at 100 uM preincubated with compound for 2 hrs followed by virus infection measured after 24 hrs by luciferase reporter gene assay relative to control. It counts as functional. On the technique in general: In a reporter assay the amount or activity of a reporter protein is the signal.

Data set [2] has as its system Influenza A virus. Put plainly: Antiviral activity against Influenza A virus (A/WSN/1933(H1N1)) infected in MDCK cells cocultured with human 293T-Gluc cells at 20 uM preincubated with compound for 2 hrs followed by virus infection measured after 24 hrs by luciferase reporter gene assay relative to control. The class given is functional.
Data set [3] in a line: Cytotoxicity against MDCK cells assessed as reduction in cell viability by CCK8 assay. The class given is cell-based, Canis lupus familiaris. The note with it: dog. On the technique in general: Tetrazolium dyes change colour on reduction, which living cells bring about.
Data set [4] deals with Influenza A virus. Briefly: Antiviral activity against Influenza A virus (A/WSN/1933(H1N1)) infected in MDCK cells cocultured with human 293T-Gluc cells preincubated with compound for 2 hrs followed by virus infection measured after 24 hrs by luciferase reporter gene assay. It counts as functional, organism-based.

As for `C[C@H]1OC(=O)CC2C(C(=O)O)=CO[C@@H](O[C@@H]3O[C@H](COC(=O)/C=C/c4ccccc4)[C@@H](O)[C@H](O)[C@H]3O)C21` (stereo partly specified), in the data set on Influenza A virus [1], the inhibition at 100 µM worked out at 33.3%. The inhibition at 20 µM in the data set with Influenza A virus [2] worked out at 35.6%.
With `C=C[C@H]1[C@H](O[C@@H]2O[C@H](COC(=O)/C=C/c3ccccc3)[C@@H](O)[C@H](O)[C@H]2O)OC=C(C(=O)O)[C@H]1CC(=O)O`, the inhibition at 100 µM with Influenza A virus [1] came to 73.9%. For the same molecule, the inhibition at 20 µM in the data set on Influenza A virus [2] is 60.8%. The CC50 in data set [3] turned out to be 80.5 µM. Moreover, the IC50 with Influenza A virus [4] is 16.5 µM.
Consider `COC(=O)C1=CO[C@@H](O[C@@H]2O[C@H](CO)[C@@H](O)[C@H](O)[C@H]2O)/C(=C/C(=O)O)[C@@H]1CC(=O)OCCc1ccc(O)cc1`, for which, in the data set on Influenza A virus [1], the inhibition at 100 µM stood at 81.7%. The inhibition at 20 µM in the data set with Influenza A virus [2] came out at 60.4%. In addition, the CC50 in data set [3] is > 100 µM. Besides, the IC50 in the data set on Influenza A virus [4] stood at 12.5 µM.
Take `C=C[C@H]1[C@H](O[C@@H]2O[C@H](COC(=O)/C=C/c3ccccc3)[C@@H](O)[C@H](O)[C@H]2O)OC=C(C(=O)O)[C@H]1CC(=O)OC`: the inhibition entry in the data set with Influenza A virus [1] and in the data set with Influenza A virus [2] was “inactive” each time.
Consider `NC(=O)c1ncn([C@@H]2O[C@H](CO)[C@@H](O)[C@H]2O)n1` [RIBAVIRIN], for which, in the data set on Influenza A virus [4], the IC50 worked out at 22.6 µM.
`COC(=O)C[C@@H]1C(C(=O)OC)=CO[C@@H](C)[C@@H]1C(OC)OC`: the inhibition entry in the data set on Influenza A virus [1] and in the data set with Influenza A virus [2] was “inactive” each time.
In the case of `C/C=C1/[C@H]2OC=C(C(=O)OC)[C@H]1CC(=O)OC[C@H](c1ccc(O)c(O)c1)OC[C@H]1O[C@@H](O2)[C@H](O)[C@@H](O)[C@@H]1O`, the inhibition result in the data set on Influenza A virus [1] and with Influenza A virus [2] was “inactive” in each case.
`COC(=O)C1=CO[C@@H](O[C@@H]2O[C@H](CO)[C@@H](O)[C@H](O)[C@H]2O)/C(=C/C(=O)O)[C@@H]1CC(=O)OCCc1ccc(O)c(O)c1`: in the data set on Influenza A virus [1], the inhibition at 100 µM is 83.2%. For the same molecule, the inhibition at 20 µM in the data set with Influenza A virus [2] was 63.1%. Also, in data set [3], the CC50 was > 100 µM. For the same molecule, in the data set on Influenza A virus [4], the IC50 was 13.1 µM.
Take `C/C=C1/[C@H](O[C@@H]2O[C@H](CO[C@@H]3O[C@H](CO)[C@@H](O)[C@H](O)[C@H]3O)[C@@H](O)[C@H](O)[C@H]2O)OC=C(C(=O)OC)[C@H]1CC(=O)OCCc1ccc(O)cc1`: the inhibition at 100 µM with Influenza A virus [1] is 60.8%. Further, the inhibition at 20 µM in the data set with Influenza A virus [2] is 17.8%.
For `COC(=O)C1=CO[C@@H](O[C@@H]2O[C@H](CO)[C@@H](O)[C@H](O)[C@H]2O)[C@@](O)(CC(=O)O)[C@@H]1CC(=O)O` the same measures were 76.2% and 29.4%.
As for `C/C=C1/[C@H]2OC=C(C(=O)OC)[C@H]1CC(=O)OC[C@@H](c1ccc(O)c(O)c1)OC[C@H]1O[C@@H](O2)[C@H](O)[C@@H](O)[C@@H]1O`, the inhibition entry with Influenza A virus [1] and in the data set with Influenza A virus [2] was “inactive” each time.
`CCOC(=O)C[C@@H]1C(C(=O)OC)=CO[C@@H](C)[C@@H]1C=O`: the inhibition at 100 µM in the data set with Influenza A virus [1] was 96.8%. In addition, the inhibition at 20 µM in the data set with Influenza A virus [2] worked out at 55.8%. For the same molecule, in data set [3], the CC50 turned out to be 90.8 µM. The IC50 with Influenza A virus [4] is 18.5 µM.

As usually defined, the inhibition is the change of the read-out against control, counted positive when it falls. Usually CC50 stands for the concentration giving 50% cytotoxicity. For orientation: IC50 means the concentration that inhibits the measured activity by half.
